Data from US10519099B2, “Cystobactamides” (priority 2014, dated 2019).
Values after ≈ are worked out from the molar mass of the structure shown. Where two headings read alike, the source gives them in different places.

Assays:
[1] = test system: Escherichia coli ATCC25922; test: MIC microdilution, E. coli ATCC25922; type: cell-based; details: ATCC25922, read-out: MIC Escherichia coli ATCC25922
Description: (§1) Indicator strains used in susceptibility assays were either part of our strain collection or purchased from the German Collection of Microorgansims and Cell Cultures (DSMZ) or from the American Type Culture Collection (ATCC). E. coli strain WT and corresponding E. coli mutants were kindly provided by Prof. Dr. P. Heisig, Pharmaceutical Biology and Microbiology, University of Hamburg. E. coli strains JW0401-1 (WT) and Δtsx were obtained from the CGSC collection.
(§2) MIC values were determined in standardized microdilution assays. Overnight cultures were diluted in the appropriate growth medium to achieve an inoculum of 10^4-10^6 cfu/mL. Yeasts were grown in Myc medium (1% phytone peptone, 1% glucose, 50 mM HEPES, pH 7.0), S. pneumonia and Enterococcus spp. in tryptic soy broth (TSB: 1.7% peptone casein, 0.3% peptone soymeal, 0.25% glucose, 0.5% NaCl, 0.25% K2HPO4; pH 7.3); M. smegmatis in Middlebrook 7H9 medium supplemented with 10% Middlebrook ADC enrichment and 2 ml/I glycerol). All other listed bacteria were grown in Müller-Hinton broth (0.2% beef infusion solids, 1.75% casein hydrolysate, 0.15% starch, pH 7.4). […] Growth inhibition was assessed by visual inspection and the MIC was defined as the lowest concentration of compound that inhibited visible growth.

[2] = test system: E. coli DSM-1116; test: MIC microdilution, E. coli DSM-1116; type: cell-based, Escherichia coli; details: Escherichia coli, DSM1116
Description: as §1
(§3) MIC values were determined in standardized microdilution assays. Overnight cultures were diluted in the appropriate growth medium to achieve an inoculum of 10^4-10^6 cfu/mL. Yeasts were grown in Myc medium (1% phytone peptone, 1% glucose, 50 mM HEPES, pH 7.0), S. pneumonia and Enterococcus spp. in tryptic soy broth (TSB: 1.7% peptone casein, 0.3% peptone soymeal, 0.25% glucose, 0.5% NaCl, 0.25% K2HPO4; pH 7.3); M. smegmatis in Middlebrook 7H9 medium supplemented with 10% Middlebrook ADC enrichment and 2 ml/I glycerol). All other listed bacteria were grown in Müller-Hinton broth (0.2% beef infusion solids, 1.75% casein hydrolysate, 0.15% starch, pH 7.4). Cystobactamides and reference drugs were added directly to the cultures in sterile 96-well plates as duplicates and serial dilutions were prepared. Microorganisms were grown on a microplate shaker (750 rpm, 30-37° C., 18-48 h), except S. pneumonia, which was grown at non-shaking conditions (37° C., 5% CO2, 18 h). Growth inhibition was assessed by visual inspection and the MIC was defined as the lowest concentration of compound that inhibited visible growth.

[3] = test system: P. aeruginosa DSM-24600 (ESBL); test: MIC microdilution, P. aeruginosa DSM-24600 (ESBL); type: cell-based, Pseudomonas aeruginosa; details: Pseudomonas aeruginosa, DSM24600
Description: as §1, §3

[4] = test system: Enterococcus faecium DSM-20477; test: MIC microdilution, Enterococcus faecium DSM-20477; type: cell-based; details: Enterococcus faecium, DSM20477, read-out: MIC Enterococcus faecium DSM-20477
Description: as §1, §3

[5] = test system: E. coli DSM-26863 (tolC3); test: MIC microdilution, E. coli DSM-26863 (tolC3); type: cell-based, Escherichia coli; details: Escherichia coli
Description: as §1, §3

[6] = test system: Escherichia coli ATCC35218; test: MIC microdilution, E. coli ATCC35218; type: cell-based; details: ATCC35218, read-out: MIC Escherichia coli ATCC35218
Description: as §1, §2

[7] = test system: Burkholderia cenocepacia DSM-16553; test: MIC microdilution, Burkholderia cenocepacia DSM-16553; type: cell-based; details: DSM16553, read-out: MIC Burkholderia cenocepacia DSM-16553
Description: as §1, §2

[8] = test system: Mycobacterium smegmatis ATCC700084; test: MIC microdilution, Mycobacterium smegmatis ATCC700084; type: cell-based; details: Mycolicibacterium smegmatis, ATCC700084, read-out: MIC Mycobacterium smegmatis ATCC700084
Description: as §1, §2

[9] = test system: E. coli WT; test: MIC microdilution, E. coli WT; type: cell-based, Escherichia coli; details: Escherichia coli
Description: as §1, §3

[10] = test system: Streptococcus pneumoniae DSM-20566; test: MIC microdilution, Streptococcus pneumoniae DSM-20566; type: cell-based; details: DSM20566, read-out: MIC Streptococcus pneumoniae DSM-20566
Description: as §1, §2

[11] = test system: Bacillus subtilis DSM-10; test: MIC microdilution, Bacillus subtilis DSM-10; type: cell-based; details: DSM10, read-out: MIC Bacillus subtilis DSM-10
Description: as §1, §2

[12] = test system: Pseudomonas aeruginosa PA14; test: MIC microdilution, P. aeruginosa PA14; type: cell-based; details: Pseudomonas aeruginosa, PA14, read-out: MIC Pseudomonas aeruginosa PA14
Description: as §1, §3

[13] = test system: Citrobacter freundii DSM-30039; test: MIC microdilution, C. freundii DSM-30039; type: cell-based; details: Citrobacter freundii, DSM30039
Description: as §1, §3

[14] = test system: Escherichia coli MI [gyrA(S83L)]; test: MIC microdilution, E. coli MI [gyrA(S83L)]; type: cell-based; details: read-out: MIC Escherichia coli MI [gyrA(S83L)]
Description: as §1, §2

[15] = test system: Pseudomonas aeruginosa ATCC27853; test: MIC microdilution, P. aeruginosa ATCC27853; type: cell-based; details: Pseudomonas aeruginosa, ATCC27853, read-out: MIC Pseudomonas aeruginosa ATCC27853
Description: as §1, §3

[16] = test system: E. coli WT-3 [gyrA(S83L, D87G)]; test: MIC microdilution, E. coli WT-3 [gyrA(S83L, D87G)]; type: cell-based, Escherichia coli; details: Escherichia coli
Description: as §1, §3

[17] = test system: Staphylococcus epidermidis DSM-28765; test: MIC microdilution, Staphylococcus epidermidis DSM-28765; type: cell-based; details: Staphylococcus epidermidis, DSM28765, read-out: MIC Staphylococcus epidermidis DSM-28765
Description: as §1, §3

[18] = test system: E. coli WT-III [marRΔ74bp]; test: MIC microdilution, E. coli WT-III [marRΔ74bp]; type: cell-based, Escherichia coli
Description: as §1, §3

[19] = test system: Candida albicans DSM-1665; test: MIC microdilution, Candida albicans DSM-1665; type: cell-based; details: DSM1665, read-out: MIC Candida albicans DSM-1665
Description: as §1, §2

[20] = test system: Micrococcus luteus DSM-1790; test: MIC microdilution, Micrococcus luteus DSM-1790; type: cell-based; details: DSM1790, read-out: MIC Micrococcus luteus DSM-1790
Description: as §1, §2

[21] = test system: Escherichia coli MI-4 [gyrA(S83L), parC(S80I)]; test: MIC microdilution, E. coli MI-4 [gyrA(S83L), parC(S80I)]; type: cell-based; details: read-out: MIC Escherichia coli MI-4 [gyrA(S83L), parC(S80I)]
Description: as §1, §2

[22] = test system: Pseudomonas aeruginosa DSM-24599; test: MIC microdilution, P. aeruginosa DSM-24599; type: cell-based; details: Pseudomonas aeruginosa, DSM24599, read-out: MIC Pseudomonas aeruginosa DSM-24599
Description: as §1, §3

[23] = test system: Escherichia coli DSM-12242 (NAL^R); test: MIC microdilution, E. coli DSM-12242 (NAL^R); type: cell-based; details: DSM12242, read-out: MIC Escherichia coli DSM-12242 (NAL^R)
Description: as §1, §2

[24] = test system: Chromobacterium violaceum DSM-30191; test: MIC microdilution, Chromobacterium violaceum DSM-30191; type: cell-based; details: DSM30191, read-out: MIC Chromobacterium violaceum DSM-30191
Description: as §1, §2

Question: What does the source list for `COC(C(N)=O)C(NC(=O)c1ccc(NC(=O)c2ccc([N+](=O)[O-])cc2)cc1)C(=O)Nc1ccc(C(=O)Nc2ccc(C(=O)Nc3ccc(C(=O)O)cc3OC(C)C)c(O)c2OC(C)C)cc1` (stereo not shown) [Cys 919-2]?
Answer: MIC [1]: 0.5 µg/mL (≈ 0.544 µM); MIC ([2]; Gram-negative set, read-out: MIC E. coli DSM-1116): 0.5 µg/mL (≈ 0.544 µM); MIC ([2]; larger panel, read-out: MIC Escherichia coli DSM-1116): 1 µg/mL (≈ 1.09 µM); MIC ([3]; Gram-negative set, read-out: MIC P. aeruginosa DSM-24600 (ESBL)): 64 µg/mL (≈ 69.6 µM); MIC ([3]; larger panel, read-out: MIC Pseudomonas aeruginosa DSM-24600 (ESBL)): 64 µg/mL (≈ 69.6 µM); MIC [4]: 0.25 µg/mL (≈ 0.272 µM); MIC ([5]; DSM26863, read-out: MIC E. coli DSM-26863 (tolC3)): 0.25 µg/mL (≈ 0.272 µM); MIC ([5]; DSM26863, read-out: MIC Escherichia coli DSM-26863 (tolC3)): 0.5 to 1 µg/mL (≈ 0.544 to 1.09 µM); MIC [6]: 1 µg/mL (≈ 1.09 µM); MIC [7]: > 64 µg/mL; MIC [8]: > 64 µg/mL; MIC ([9]; Gram-negative set, read-out: MIC E. coli WT): 0.5 µg/mL (≈ 0.544 µM); MIC ([9]; larger panel, read-out: MIC Escherichia coli WT): 0.5 µg/mL (≈ 0.544 µM); MIC [10]: 0.1 µg/mL (≈ 0.109 µM); MIC [11]: 0.1 µg/mL (≈ 0.109 µM); MIC [12]: > 64 µg/mL; MIC ([13]; Gram-negative set, read-out: MIC C. freundii DSM-30039): 1 µg/mL (≈ 1.09 µM); MIC ([13]; larger panel, read-out: MIC Citrobacter freundii DSM-30039): 1 µg/mL (≈ 1.09 µM); MIC [14]: 4 µg/mL (≈ 4.35 µM); MIC [15]: > 64 µg/mL; MIC ([16]; read-out: MIC E. coli WT-3 [gyrA(S83L, D87G)]): 64 µg/mL (≈ 69.6 µM); MIC ([16]; read-out: MIC Escherichia coli WT-3 [gyrA(S83L, D87G)]): 16 to 32 µg/mL (≈ 17.4 to 34.8 µM); MIC [17]: 0.25 µg/mL (≈ 0.272 µM); MIC E. coli WT-III [marRΔ74bp] ([18]; Gram-negative set): >64 µg/mL; MIC Escherichia coli WTIII (marRΔ74bp) ([18]; larger panel): 64 µg/mL (≈ 69.6 µM); MIC [19]: > 64 µg/mL; MIC [20]: 0.1 to 0.2 µg/mL (≈ 0.109 to 0.217 µM); MIC [21]: 2 to 4 µg/mL (≈ 2.17 to 4.35 µM); MIC [22]: > 64 µg/mL; MIC [23]: 1 to 2 µg/mL (≈ 1.09 to 2.17 µM); MIC [24]: 15 µg/mL (≈ 16.3 µM)
